Experimental findings from patent publication US9593305B2, “Differentiation of pluripotent stem cells” (Janssen Biotech, Inc., priority 2008, dated 2017) are described below.

In assay [1] the test system is H1 human embryonic stem cells. Nature of the assay: Step-wise differentiation, FACS for CXCR4 after step 1 (Example 16). As to conditions: 100 ng/ml GDF-8 with compound on first day, compared to activin A and Wnt3a. The class given is cell-based. As to the method:
(§1) The assay was initiated by aspirating the culture medium from each well and adding back an aliquot (0.5 ml) of test medium. Test conditions for the first step of differentiation were conducted over a three-day period, feeding daily by aspirating and replacing the medium from each well with fresh test medium. On the first day of assay, 100 ng/ml activin A (PeproTech; Cat #120-14) or 100 ng/ml GDF-8 (R&D Systems, Cat #788-G8) was added to respective assay wells where each growth factor was diluted into RPMI-1640 medium (Invitrogen; Cat #: 22400) with 2% Albumin Bovine Fraction V, Fatty Acid Free (FAF BSA) (Proliant Inc. Cat #: SKU 68700), and 20 ng/ml Wnt3a (R&D Systems; Cat #1324-WN/CF). On the second day of assay, 100 ng/ml activin A or 100 ng/ml GDF-8 was diluted into RPMI-1640 medium supplemented with 2% FAF BSA without Wnt3a. In some test samples using GDF-8, Wnt3a was replaced with a small molecule compound, added only on the first day of definitive endoderm differentiation. These small molecules included Compound 19 (2.5 μM in assay), Compound 202 (2.5 μM in assay), Compound 40 (2.5 μM in assay), or a commercially available GSK3 inhibitor BIO (0.5 μM in assay) (EMD Chemicals, Inc.; Cat #361550). At the conclusion of the first step of differentiation, cells from some wells were harvested for flow cytometry analysis to evaluate levels of CXCR4, a marker of definitive endoderm formation. Additional wells were harvested for RT-PCR analysis to measure other markers of differentiation.
Cells for FACS analysis were blocked in a 1:5 solution of 0.5% human gamma-globulin (Sigma; Cat#G-4386) in PBS (Invitrogen; Cat #14040-133): BD FACS staining buffer—BSA (BD; Cat #554657) for 15 minutes at 4° C. Cells were then stained with antibodies for CD9 PE (BD; Cat #555372), CD99 PE (Caltag; #MHCD9904) and CXCR4 APC(R&D Systems; Cat#FAB 173A) for 30 minutes at 4° C. After a series of washes in BD FACS staining buffer, the cells were stained for viability with 7-AAD (BD; Cat #559925) and run on a BD FACSArray. […]

Assay [2] concerns H1 human embryonic stem cells. The assay can be described thus: Step-wise differentiation, high content analysis of SOX17, cell number, insulin, glucagon (Example 16). The class given is cell-based. Particulars: GDF-8 with compound in step 1, relative to activin A and Wnt3a. As to the method: as §1
Step 5 of the differentiation protocol was carried out over seven days in DMEM-high glucose with 0.1% Albumax, 0.5× Insulin-Transferrin-Selenium, and 1 μM Alk 5 inhibitor. […]
Imaging was performed using an IN Cell Analyzer 1000 (GE Healthcare) utilizing the 51008bs dichroic for cells stained with Hoechst 33342 and Alexa Fluor 488. […] Segmentation for the nuclei was determined based on gray-scale levels (baseline range 100-300) and nuclear size. Averages and standard deviations were calculated for each replicate data set. […]

On to `O=C1Nc2cc(Br)ccc2/C1=C1/Nc2ccccc2/C1=N\O` [GSK3 inhibitor BIO, reference compound], for which the “percentage of CXCR4 positive cells after step 1” value in assay [1] is “equivalent or slightly higher percentage of CXCR4 positive cells”. Moreover, the “relative cell numbers recovered through differentiation step 5” value in assay [2] is recorded as “decrease in cell number”.
